According to PubChem BioAssay (NCI):
“And” between values parts separate entries of the source, which are not always exact repeats. Equal entries are not always repeated.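 Assay format: 96-well plates, 48-hour exposure. GI50 marks 50% less growth. TGI is the concentration that stops growth completely.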

How the values were obtained:
Experiment in all cases: NCI tumour cell line growth inhibition, 48 h
MALME-3M melanoma = tested on: MALME-3M melanoma
LOX IMVI melanoma = tested on: LOX IMVI melanoma
SF-539 CNS = tested on: SF-539 CNS
M14 melanoma = tested on: M14 melanoma
RPMI-8226 leukemia = tested on: RPMI-8226 leukemia
NCI-H226 lung = tested on: NCI-H226 lung
SNB-75 CNS = tested on: SNB-75 CNS
NCI/ADR-RES ovarian = tested on: NCI/ADR-RES ovarian
OVCAR-4 ovarian = tested on: OVCAR-4 ovarian
NCI-H23 lung = tested on: NCI-H23 lung

Structure (SMILES) | TGI (MALME-3M melanoma) [µM] | TGI (LOX IMVI melanoma) | TGI (SF-539 CNS) [µM] | TGI (M14 melanoma) [µM] | TGI (RPMI-8226 leukemia) [µM] | TGI (NCI-H226 lung) [µM] | TGI (SNB-75 CNS) | TGI (NCI/ADR-RES ovarian) | TGI (OVCAR-4 ovarian) | TGI (NCI-H23 lung) | GI50 (MALME-3M melanoma) [nM] | GI50 (LOX IMVI melanoma) [nM] | GI50 (SF-539 CNS) [µM] | GI50 (M14 melanoma) [nM] | GI50 (RPMI-8226 leukemia) [nM] | GI50 (NCI-H226 lung) [nM] | GI50 (NCI/ADR-RES ovarian) | GI50 (OVCAR-4 ovarian) | GI50 (NCI-H23 lung) | GI50 (SNB-75 CNS)
Cc1cc(Cl)ccc1OCC(=O)Oc1c(Cl)c(Cl)c(Cl)c(Cl)c1Cl | 45.3 | 51.6 µM | > 100 | 71.4 | 61.7 | 53.8 | 62.6 µM | 67.6 µM | 92.1 µM | 95.5 µM | – | – | – | – | – | – | – | – | – | –
CC(C)(C)OC(=O)N(CCCn1c2c(c3ccccc3c1=O)C(=O)c1ccccc1-2)CCN(CCCn1c2c(c3ccccc3c1=O)C(=O)c1ccccc1-2)C(=O)OC(C)(C)C | > 50 | > 50 µM | > 50 | > 50 | > 50 | > 50 | – | > 50 µM | > 50 µM | > 50 µM | > 50000 | 25200 | > 50 | > 50000 | 12100 | > 50000 | > 50 µM | > 50000 nM | > 50000 nM | –
C[C@]1(O)CC(=O)[C@]2(O)C3=C(C=C[C@]2(O)C1)C(=O)c1c(O)cccc1C3=O | 1.84 | 5.77 µM | 17 | 3.45 | 5.65 | 3.69 | 26.4 µM | 40.3 µM | 2.79 µM | 4.71 µM | 492 | 2250 | 4.67 | 1700 | 1640 | 1690 | 5.84 µM | 1440 nM | 1940 nM | 11400 nM
COc1ccc(-c2ccc(=O)oc2-c2cc(OC)c(OC)c(OC)c2)cc1O | > 100 | > 100 µM | 0.104 | > 100 | 0.956 | > 100 | > 100 µM | > 100 µM | > 100 µM | > 100 µM | – | 51 | < 0.0149 | 18 | 25.1 | 199 | 0.036 µM | 283 nM | 68.9 nM | 38.9 nM
S=C(S)NCCCn1ccnc1 | > 100 | > 100 µM | > 100 | > 100 | > 100 | > 100 | – | > 100 µM | > 100 µM | > 100 µM | – | – | – | – | – | – | – | – | – | –
COc1cc([N+](=O)[O-])c(S(=O)(=O)O)cc1-n1nc(-c2ccccc2)n[n+]1-c1cc(S(=O)(=O)[O-])c([N+](=O)[O-])cc1OC | > 100 | > 100 µM | > 100 | > 100 | > 100 | > 100 | > 100 µM | > 100 µM | > 100 µM | > 100 µM | – | – | – | – | – | – | – | – | – | –
CCCCCCCCCCCCCCCC[N+](C)(C)C | 5.08 | 0.332 µM and 3.07 µM | 3.18 | 2.86 | 0.792 | 3.07 | 0.396 µM and 3.72 µM | 6.53 µM and 31.6 µM | 1.03 µM and 5.95 µM | 1.51 µM and 3.8 µM | 1800 | – | 1.49 | 1170 | 142 | 1130 | 1.6 µM and 11.9 µM | 232 nM and 1520 nM | 292 nM and 1460 nM | 142 nM and 1360 nM
COc1cc(C)c(N(C)C(=O)CN(C)C)cc1Nc1nc(Nc2cccc(F)c2C(N)=O)c2cc[nH]c2n1 | > 25 | > 25 µM | > 25 | > 25 | > 25 | > 25 | > 25 µM | > 25 µM | > 25 µM | > 25 µM | > 25000 | 24600 | > 25 | > 25000 | > 22000 | > 24000 | > 25 µM | > 25000 nM | > 25000 nM | > 25000 nM
O=c1cc(-c2ccccc2)oc2cc(OCc3cn(Cc4ccc(F)cc4)nn3)cc(O)c12 | > 100 | > 100 µM | > 100 | > 100 | > 100 | > 100 | 28 µM | > 100 µM | – | > 100 µM | 5060 | > 100000 | 5.17 | > 100000 | > 100000 | 3510 | 5.57 µM | – | 7700 nM | 3740 nM
COc1ccc(-n2nc(C)c3c(Nc4ccc(NC(=O)Nc5cc(C(F)(F)F)ccc5F)cc4)ncnc32)cc1 | 4.06 | 3.1 µM | 4.87 | 4.64 | 5.88 | 7.23 | 7.84 µM | 11.9 µM | > 100 µM | 6.71 µM | 1760 | 1670 | 1.94 | 1900 | 2260 | 2340 | 2.93 µM | 2830 nM | 2220 nM | 1210 nM
O=C(O)C1(C(=O)O)CCN(S(=O)(=O)c2ccccc2)CC1 | > 100 | > 100 µM | > 100 | > 100 | > 100 | > 100 | > 100 µM | > 100 µM | > 100 µM | > 100 µM | – | – | – | – | – | – | – | – | – | –
O=c1c2ccccc2c(C=NCCNCCO)c2oc3ccccc3n12 | – | 18.4 µM | 12.2 | 29.5 | 31.6 | 29 | – | 26.7 µM | 36 µM | 33.6 µM | – | 5830 | 3.51 | 15600 | 7670 | 11900 | 13.8 µM | 16600 nM | 19500 nM | –
Cn1c(-c2c(N)n(Cc3ccc(Cl)cc3)c3nc(C#N)c(C#N)nc23)nc2ccccc21 | – | 5.68 µM | 14.5 | 42.6 | > 50 | – | – | 10.8 µM | 18.6 µM | 2.48 µM | – | 1140 | 6.64 | 10600 | 1730 | – | 2.36 µM | 3890 nM | 1180 nM | –
CN1CCN(c2ccc(NC3=C(Cl)C(=O)c4ncccc4C3=O)cc2C(F)(F)F)CC1 | 2.83 | 2.94 µM | 3.53 | 3.67 | 6.66 | 29.9 | 19.8 µM | 7.47 µM | 2.31 µM | 3.87 µM | 1460 | 1530 | 1.74 | 1780 | 874 | 13000 | 2.46 µM | 1090 nM | 1870 nM | 5440 nM
